Values after ≈ are worked out from the molar mass of the structure shown.
How the values were obtained:
E. coli Neumann = test: Minimum inhibitory concentration (MIC), serial dilution on Iso-Sensitest Agar; type: cell-based; conditions: Escherichia coli, 37° C., about 20 hours
Method: (§1) In the following Tables 9 and 10, the minimum inhibitory concentration are shown as a measure of the antibacterial activity and the ID50 values as a measure of the interactions with mammalian DNA of a substance both for compounds according to the invention and for reference compounds from the prior art (EP 520 240).
(§2) The minimum inhibitory concentration (MIC) were determined by a serial dilution method on Iso-Sensitest Agar (Oxoid). For each test substance, a number of agar plates were prepared which, with doubled dilution in each case, contained decreasing concentrations of the active compound. The agar plates were inoculated using a multipoint inoculator (Denley). For inoculation, overnight cultures of the pathogens were used which had previously been diluted such that each inoculation point contained about […] colony-forming particles. The inoculated agar plates were incubated at 37° C. and the microorganism growth was read off after about 20 hours. The MIC value (μg/ml) indicates the lowest active compound concentration at which no growth could be detected using the naked eye.

Staph. aureus ICB 25701 = test: as above; type: cell-based; conditions: Staphylococcus aureus, ICB25701, 37° C., about 20 hours
Method: as §1, §2

Bac. fragilis ES 25 = test: as above; type: cell-based; conditions: Bacteroides fragilis, ES25, 37° C., about 20 hours
Method: as §2

Ps. aeruginosa Walter = test: as above; type: cell-based; conditions: Pseudomonas aeruginosa, 37° C., about 20 hours
Method: as §2

Staph. aureus 133 = test: as above; type: cell-based; conditions: Staphylococcus aureus, 37° C., about 20 hours
Method: as §2

[1] = Inhibition of DNA synthesis in CHO-KI cells (interaction with mammalian DNA), fluorophotometric; type: cell-based, Chinese hamster; conditions: hamster, cho-k1 cells; concentration at which DNA synthesis in CHO-KI cells is inhibited by 50%; read-out: ID50 (the source's name)
Source text: as §1
ID50 is understood as meaning the concentration of a substance at which the DNA synthesis in cells from ovaries of the Chinese hamster (CHO-KI) is inhibited by 50%. This value is determined over defined time intervals in decreasing dilution steps after incubation of the appropriate substances. To do this, the DNA synthesis in CHO-KI cells is determined in comparison to controls by means of fluorophotometric methods.

NC12C=CC=CC1CN(c1c(F)cc3c(=O)c(C(=O)O)cn(C4CC4)c3c1F)C2 (stereo not drawn) [Example 2, 7-(3a-amino-1,2,3,7a-tetrahydroisoindol-2-yl)-1-cyclopropyl-6,8-difluoro-1,4-dihydro-4-oxo-3-quinolinecarboxylic acid]
MIC (E. coli Neumann): ≤ 0.015 µg/mL | MIC (Staph. aureus ICB 25701): 2 µg/mL (≈ 5.01 µM) | MIC (Bac. fragilis ES 25): 1 µg/mL (≈ 2.5 µM) | MIC (Ps. aeruginosa Walter): 1 µg/mL (≈ 2.5 µM) | MIC (Staph. aureus 133): 0.06 µg/mL (≈ 0.15 µM) | IC50 [1]: 32 µg/mL (≈ 80.1 µM)

NC12C=CC=CC1CN(c1c(F)cc3c(=O)c(C(=O)O)cn(C4CC4)c3c1Cl)C2 (stereo not drawn) [Example 3, 7-(3a-amino-1,2,3,7a-tetrahydro-isoindol-2-yl)-8-chloro-1-cyclopropyl-6-fluoro-1,4-dihydro-4-oxo-3-quinolineearboxylic acid]
MIC (E. coli Neumann): ≤ 0.015 µg/mL | MIC (Staph. aureus ICB 25701): 0.25 µg/mL (≈ 0.601 µM) | MIC (Bac. fragilis ES 25): 0.125 µg/mL (≈ 0.301 µM) | MIC (Ps. aeruginosa Walter): 0.5 µg/mL (≈ 1.2 µM) | MIC (Staph. aureus 133): ≤ 0.015 µg/mL | IC50 [1]: 32 µg/mL (≈ 77 µM)

COc1c(N2CC3C=CC=CC3(N)C2)c(F)cc2c(=O)c(C(=O)O)cn(C3CC3)c12 (stereo not drawn) [Example 4, 7-(3a-amino-1,2,3,7a-tetrahydro-isoindolo2-yl)-1-cyclopropyl-6-fluoro-1,4-dihydro-8-methoxy-4-oxo-3-quinolinecarboxylic acid]
MIC (E. coli Neumann): ≤ 0.015 µg/mL | MIC (Staph. aureus ICB 25701): 0.5 µg/mL (≈ 1.22 µM) | MIC (Bac. fragilis ES 25): 2 µg/mL (≈ 4.86 µM) | MIC (Ps. aeruginosa Walter): 0.5 µg/mL (≈ 1.22 µM) | MIC (Staph. aureus 133): ≤ 0.015 µg/mL | IC50 [1]: > 64 µg/mL

NC12C=CC=CC1CN(c1c(F)cc3c(=O)c(C(=O)O)cn([C@@H]4C[C@@H]4F)c3c1F)C2 (stereo partly drawn) [Example 8, 7-(3a-amino-1,2,3,7a-tetrahydro-isoindol-2-yl)-6,8-difluoro-1-(cis-2-fluorocydopropyl)-1,4-dihydro-4-oxo-3-quinolineearboxylic acid]
MIC (E. coli Neumann): ≤ 0.015 µg/mL | MIC (Staph. aureus ICB 25701): 0.5 µg/mL (≈ 1.2 µM) | MIC (Bac. fragilis ES 25): 0.5 µg/mL (≈ 1.2 µM) | MIC (Ps. aeruginosa Walter): 0.5 µg/mL (≈ 1.2 µM) | MIC (Staph. aureus 133): 0.03 µg/mL (≈ 0.0719 µM) | IC50 [1]: 16 µg/mL (≈ 38.3 µM)

NC12C=CC=CC1CN(c1nc3c(cc1F)c(=O)c(C(=O)O)cn3C1CC1)C2 (stereo not drawn) [Example 9, 7-(3a-amino-1,2,3,7a-tetrahydro-isoindol-2-yl)-1-cyclopropyl-6-fluoro-1,4-dihydro-4-oxo-1,8-naphthyridine-3-carboxylic acid]
MIC (E. coli Neumann): ≤ 0.015 µg/mL | MIC (Staph. aureus ICB 25701): 8 µg/mL (≈ 20.9 µM) | MIC (Bac. fragilis ES 25): 4 µg/mL (≈ 10.5 µM) | MIC (Ps. aeruginosa Walter): 1 µg/mL (≈ 2.62 µM) | MIC (Staph. aureus 133): 0.06 µg/mL (≈ 0.157 µM) | IC50 [1]: 32 µg/mL (≈ 83.7 µM)

CC1C=CC(N)C2CN(c3c(F)cc4c(=O)c(C(=O)O)cn(C5CC5)c4c3F)CC12 (stereo not drawn) [Ref. 1, 7(4-Amino-7-methyl-1,3,3a,4,7,7a-hexahydro-isoindol-2-yl)-1-cyclopropyl-6 8-difluoro-1,4-dihydro-4-oxo-3-quinolinecarboxylic acid, reference compound]
MIC (E. coli Neumann): 0.015 µg/mL (≈ 0.0361 µM) | MIC (Staph. aureus ICB 25701): 0.06 µg/mL (≈ 0.144 µM) | MIC (Bac. fragilis ES 25): 0.5 µg/mL (≈ 1.2 µM) | MIC (Ps. aeruginosa Walter): 0.5 µg/mL (≈ 1.2 µM) | MIC (Staph. aureus 133): 0.015 µg/mL (≈ 0.0361 µM) | IC50 [1]: 0.015 µg/mL (≈ 0.0361 µM)

COc1c(N2CC3C(C)C=CC(N)C3C2)c(F)cc2c(=O)c(C(=O)O)cn(C3CC3)c12 (stereo not drawn) [Ref. 2, 7(4-Amino-7-methyl-1,3,3a,4,7,7a-hexahydro-isoindol-2-yl)-1-cyclopropyl-6 fluoro-1,4-dihydro-8-methoxy-4-oxo-3-quinolinecarboxylic acid, reference compound]
MIC (E. coli Neumann): 0.015 µg/mL (≈ 0.0351 µM) | MIC (Staph. aureus ICB 25701): 0.015 µg/mL (≈ 0.0351 µM) | MIC (Bac. fragilis ES 25): 0.25 µg/mL (≈ 0.585 µM) | MIC (Ps. aeruginosa Walter): 1 µg/mL (≈ 2.34 µM) | MIC (Staph. aureus 133): 0.015 µg/mL (≈ 0.0351 µM) | IC50 [1]: 0.1 µg/mL (≈ 0.234 µM)

CC1C=CC(N)C2CN(c3c(F)cc4c(=O)c(C(=O)O)cn(C5CC5)c4c3Cl)CC12 (stereo not drawn) [Ref. 3, 7(4-Amino-7-methyl-1,3,3a,4,7,7a-hexahydro-isoindol-2-yl)-8-chloro-1-cycl propyl-6-fluoro-1,4-dihydro-4-oxo-3-quinolinecarboxylic acid, reference compound]
MIC (E. coli Neumann): 0.015 µg/mL (≈ 0.0347 µM) | MIC (Staph. aureus ICB 25701): 0.015 µg/mL (≈ 0.0347 µM) | MIC (Bac. fragilis ES 25): 0.125 µg/mL (≈ 0.289 µM) | MIC (Ps. aeruginosa Walter): 0.5 µg/mL (≈ 1.16 µM) | MIC (Staph. aureus 133): 0.015 µg/mL (≈ 0.0347 µM) | IC50 [1]: 0.1 µg/mL (≈ 0.232 µM)

— patent publication US5679689A, “Quinolone- and naphthyridonecarboxylic acid derivatives” (Bayer Aktiengesellschaft, priority 1994, dated 1997)
